Reference: patent publication US6399570B1, “Antimicrobial/endotoxin neutralizing polypeptide” (priority 1999, dated 2002)
Where a SMILES comes first, the peptide text is derived from it.

Key:
RAW264.7 cells = assay: Cytotoxicity of LF-33 to RAW264.7 cells (MTT); format: cell-based, murine; settings: 10 μM, highest concentration used
E. coli 0111 [1] = assay: Dose response of E. coli 0111 cells in the presence of LF polypeptides; format: cell-based; settings: E. coli 0111, 5 hours, OD 600 nm
Method: To compare the activity of the above described 33-mer which contains both basic clusters, and the above described 27-mer, which contains only one basic cluster, E. coli cultures were grown for 5 hours in the presence of varying doses of the two polypeptides.
Dose response of E. coli 0111 cells in the presence of LF polypeptides. E. coli were cultured as described above, for 5 hr in the presence of varying concentrations of polypeptide 33-mer or the related 27-mer. Inhibition of culture growth was determined spectrophotometrically as described earlier.

E. coli 0111 [2] = assay: Potentiation of Rifampicin by LF polypeptides; settings: 5 μM polypeptide + 0.9 μg/ml rifampicin, 6 hr
Method: E. coli cultures were exposed to sub-optimal doses of Rifampicin in the presence or absence of sub-optimal doses of the indicated polypeptides (FIG. 5), and were incubated for 6 hours, at which point CFU were determined.
E. coli 0111 were grown overnight as described above. Overnight cultures were then diluted 1:16,000 in 1% BP/PBS containing 0.9 μg/ml Rifampicin (Sigma-Aldrich Fine chemicals) and 5 μM LF polypeptides as indicated. Control cultures were those not exposed to any polypeptide. The diluted cultures were then incubated at 37° C. for 6 hr with aeration by shaking. The number of viable bacteria were then determined by dilution plating samples from each group and subsequently counting colony forming units (CFU). All values represent the average of duplicate independent experiments.

E. coli 0111 [3] = settings: Bellamy et al. 1992; cited from earlier work
E. coli 0111 [4] = assay: Antimicrobial assay for LF polypeptides (CFU after 6 h); format: cell-based
Method: The antimicrobial activity of the catheptic polypeptide was measured against a clinical isolate, E. coli 0111. […] The 6 kDa catheptic fragment of LF is therefore at least as potent as twelve other natural antimicrobial polypeptides (H. G. Boman, J. Marsh, and J. A. Goode, Eds., Antimicrobial Peptides, (John Wiley & Sons Ltd., New York, N.Y., 1994)), and can function as a bactericidal agent. […] At 100 μM polypeptide, the number of viable bacteria was more than 1,000-fold greater in the cultures treated with the pepsinolytic versus cathepsinolytic fragment (FIG. 1). The basis for this difference in potency may be related to the additional, internal, pepsin cleavages which occur between the two disulfide bridges in the 6 kDa domain (Mann et al., J. Biol. Chem. 269: 23661-7 (1994); Bellamy et al., Biochim. Biophys. Acta 1121: 130-6 (1992)).
Antimicrobial assay for LF polypeptides. Cultures of E. coli 0111 (American Type Culture Collection #43887) were grown at 37° C. in 1% bactopeptone (BP) (Difco) in Dulbecco's phosphate buffered saline (dPBS) (Mediatech) with aeration by shaking (225 rpm). overnight cultures were diluted 8,000-fold in 2×concentrated BP/dPBS and mixed with an equal volume of sterile endotoxin-free distilled water containing serial dilutions of the polypeptide to be tested. The final assay volume was […] in a 12 mm×75 mm polypropylene tube (Falcon) with an ultimate dilution of the overnight cultures of 1:16,000 to yield an original inoculum of ˜1-2×10^4 CFU/ml. The final assay medium was physiological in ionic strength, 1% bactopeptone in 1×Dulbecco's phosphate buffered saline. Cultures were grown for 6 h at 37° C. with aeration as above and then cell density determined by measuring CFU/ml for each assay culture tube. Serial dilutions of each assay tube were plated on Luria Broth bactoagar and incubated for 24 h at 37° C. prior to counting colonies. All assays were done in triplicate and the standard deviation calculated for each concentration of inhibitor. Culture density at the beginning and end of the 6 h growth period was also determined from triplicate cultures lacking any polypeptide inhibitors. Untreated cultures typically grew to 1-2×10^8 CFU/ml in 6 h under these assay conditions.

Lipid A = assay: Limulus ELISA, ENC50 against Lipid A; format: biochemical, E. coli K12; settings: endotoxin 200 EU/ml; mean +/− SD
Method: (§1) The peptide-mediated inhibition of endotoxin-induced Limulus amebocyte lysate (LAL) coagulation was measured with a sensitive LAL assay (Zhang et al., J. Clin. Microbiol. 32: 416-422 (1994)). Limulus ELISA is an endotoxin assay based on activation of the LAL coagulation by endotoxin and detection of the generated peptide-C immunoreactivity with an ELISA using a monoclonal antibody to the polypeptide. Endotoxin was defined to be neutralized when it lost its ability to activate the LAL enzymes. The 50% endotoxin-neutralizing concentration (ENC50) reflects the potency of an anti-endotoxin agent; a low ENC50 indicates high potency. Table 2 lists the determined ENC50 value of each anti-endotoxin agent against lipid A and four different types of LPS. The potency of each anti-endotoxin agent varied depending on the type of endotoxin. […] The only difference between the sequence of LF-33 and LF-27 is that LF-27 lacks the first six residues (GRRRRS) at the N-terminus of LF-33. Remarkably, this deletion led to dramatic loss of the endotoxin-neutralizing capacity of the polypeptide in this assay. Binding of serum proteins to endotoxin neutralizes the endotoxin activity in this assay by preventing endotoxin from activating LAL (Emancipator et al., Infect. Immun. 60: 596-601 (1992)).
(§2) LPS. […] LPS (purity >99%) from Neisseria meningitidis was prepared from the group B strain #6275 and its potency was 25 EU/ng. […] The potency of the above endotoxin was determined with the Limulus enzyme-linked immunosorbent assay (ELISA, 43) in comparison with US Pharmacopeia reference standard endotoxin EC-5.
(§3) Briefly, 25 μl endotoxin solution (200 EU/ml) was mixed with an equal volume of test materials in a series of two-fold dilution in 0.15 M NaCl in a sterile 96-well tissue culture plate (Nunc A/S, Roskilde, Denmark), and incubated at 37° C. for 1 h in a dry-air incubator. […] The endotoxin activity was then quantified with the use of Limulus ELISA (Zhang et al., J. Clin. Microbiol. 32: 416-422 (1994)). […] The high sensitivity of the assay allowed for very low levels of the endotoxin activity to be detected. […]

P. aer. LPS = assay: Limulus ELISA, ENC50 against P. aer. LPS; format: biochemical, Pseudomonas aeruginosa; settings: endotoxin 200 EU/ml; mean +/− SD
Method: as §1, §2, §3

E. coli LPS = assay: Limulus ELISA, ENC50 against E. coli LPS; format: biochemical, Escherichia coli O113:H10; settings: endotoxin 200 EU/ml; mean +/− SD
Method: as §1, §2, §3

N. min. LPS = assay: Limulus ELISA, ENC50 against N. min. LPS; format: biochemical, Neisseria meningitidis; settings: endotoxin 200 EU/ml; mean +/− SD
Method: as §1, §2, §3

RAW 264.7 cells = assay: Endotoxin-induced TNF-α secretion by RAW264.7 cells in culture medium containing 10% human serum; format: cell-based, murine; settings: polypeptide 2.5 μM, endotoxin 10 ng/ml
Method: To test the suppression of endotoxin-induced TNF-α secretion under more physiological conditions, LF-33 or polymyxin B was added to human serum (final concentration 10%) before the addition of endotoxin.
Endotoxin induced TNF-α secretion by RAW 264.7 cells. The murine macrophage cell line RAW 264.7 was obtained from the American Type Culture Collection (ATCC, Rockville, Md.) and maintained as described previously (Jeremy, B., Immunol. Today. 16: 417-419 (1995)). The concentration of endotoxin in all buffers and media was controlled to below 0.1 EU/ml. The following protocol was essentially described before and used here with minor modifications (Kelly et al., Infect. Immun. 59: 4491-6 (1991)). Each well of a 96-well tissue culture plate was seeded with 150 μl RAW 264.7 cells at 10^6 cells per ml DMEM (Life Technologies, Gaithersburg, Md.) supplemented with 10% heat-treated fetal bovine serum (Life Technologies), 25 mM HEPES (N-2-hydroxyethylpiperazine-N′-2-ethanesulfonic acid; pH 7.3), penicillin (60 U/ml) and streptomycin (60 μg/ml). After overnight incubation at 37° C. in a 6% CO2 incubator, the medium was aspirated and cells washed with 3-changes of endotoxin-free Hank's balanced salt solution (HBSS, Life Technologies) supplemented with 25 mM HEPES (pH 7.3). Control endotoxin (10 ng/ml) and test materials were prepared in HBSS-HEPES. After incubation in a 37° C. water bath for 1 h, 0.2 ml of these solutions was added in triplicate to each well and incubated at 37° C. for 6 h. The supernatants were then collected and stored at −70° C. before the measurement of […] activity. Controls included HBSS-HEPES and test materials in the absence of endotoxin. TNF-α activity of the medium and test materials was below […]. The human serum used in some experiments was a pool from normal donors.
Determination of TNF activity. TNF-α activity in the culture supernatant was determined based on its cytotoxicity for the mouse fibrosarcoma cell line WEHI 164 cells (ATCC). […] The antibody at 1:100 dilution completely eliminated the cytotoxicity in the culture supernatant of the RAW 264.7 cell stimulated by endotoxin and in the mouse sera collected 1 h after intraperitoneal injection of endotoxin.
Briefly, the 96-well tissue culture plates were seeded with 100 μl WEHI164 cells (5×10^4 cells) in RPMI-1640 medium (Life Technologies) containing 10% heat-treated fetal bovine serum, 25 mM HEPES (pH 7.3), penicillin (60 U/ml), streptomycin (60 μg/ml), and actinomycin D (4 μg/ml). […] Cell viability was then determined by the addition of 10 μl MTT (Thiazolyl blue, Sigma) stock solution (5 mg/ml in saline) to each well, and the incubation was allowed to continue for 6 h. […] The plate was read at 570 nm with a reference of 630 nm in a microplate reader. […]

S. abortus LPS = assay: Limulus ELISA, ENC50 against S. abortus LPS; format: biochemical, Salmonella abortus equi; settings: endotoxin 200 EU/ml; mean +/− SD
Method: as §1, §2, §3

Q: With CSCC[C@H](NC(=O)[C@H](CC(N)=O)NC(=O)[C@H](CCCNC(=N)N)NC(=O)[C@H](CCC(N)=O)NC(=O)[C@H](Cc1c[nH]c2ccccc12)NC(=O)[C@H](CCC(N)=O)NC(=O)[C@H](Cc1ccccc1)NC(=O)[C@H](CS)NC(=O)[C@H](CCCCN)NC(=O)[C@@H](NC(=O)[C@H](C)NC(=O)[C@H](CCC(=O)O)NC(=O)[C@@H]1CCCN1C(=O)[C@H](CCC(N)=O)NC(=O)[C@H](CO)NC(=O)[C@@H](NC(=O)[C@H](C)NC(=O)[C@H](CS)NC(=O)[C@H](Cc1c[nH]c2ccccc12)NC(=O)[C@H](CCC(N)=O)NC(=O)[C@@H](NC(=O)[C@H](CO)NC(=O)[C@H](CCCNC(=N)N)NC(=O)[C@H](CCCNC(=N)N)NC(=O)[C@H](CCCNC(=N)N)NC(=O)[C@H](CCCNC(=N)N)NC(=O)CN)C(C)C)C(C)C)[C@@H](C)O)C(=O)N[C@@H](CCCNC(=N)N)C(=O)N[C@@H](CCCCN)C(=O)N[C@H](C(=O)N[C@@H](CCCNC(=N)N)C(=O)NCC(=O)N1CCC[C@H]1C(=O)O)C(C)C [LF-33] (H-GRRRRSVQWCAVSQPEATKCFQWQRNMRKVRGP-OH) as the molecule, how does the “% killed, average” value (M. smegmatis BH1; 50 μM LF-33, 16 hours, average of three experiments, listed as 33-mer) read?
A: approximately 94%

Q: And the “anti-mycobacterial MIC” value (M. smegmatis BH1; M. smegmatis, 16 hours)?
A: not more than 10 μM

Q: What about the “cytotoxicity to RAW264.7 cells” value (RAW264.7 cells) of the same molecule?
A: no cytotoxicity

Q: What about the “minimum inhibitory concentration (MIC)” value (E. coli 0111 [1]) of the same molecule?
A: 2 to 5 µM

Q: What about the “viable bacteria relative to the rifampicin treatment alone” value (E. coli 0111 [2]) of the same molecule?
A: approximately 1%

Q: What does the source list for “pepsinolytic fragment: 6 kDa fragment released from LF by pepsin, amino acids 1-47, no amide bond between amino acid 11 and 12 [reference compound]”?
A: MIC previously reported (E. coli 0111 [3]): 18 µM; number of viable bacteria, pepsinolytic versus cathepsinolytic fragment (E. coli 0111 [4]; 100 μM polypeptide): more than 1,000 fold; minimum inhibitory concentration (MIC) (E. coli 0111 [4]; E. coli 0111, physiological ionic strength, 6 h, CFU): 11 to 33 µM

Q: With Polymyxin B [reference compound] as the molecule, how does the IC50 (Lipid A) read?
A: 0.19 µM

Q: What about the IC50 (P. aer. LPS) of the same molecule?
A: 3.91 µM

Q: What about the IC50 (E. coli LPS) of the same molecule?
A: 1.95 µM

Q: What about the IC50 (N. min. LPS) of the same molecule?
A: > 100 µM

Q: What about the “TNF-α secretion induced by P. aer. LPS” value (RAW 264.7 cells; control 4,428) of the same molecule?
A: 4,206 +/− 956 pg/ml

Q: What about the “TNF-α secretion, P. aer. LPS mixing with serum first” value (RAW 264.7 cells; control 4,428) of the same molecule?
A: 4,206 +/− 956 pg/ml

Q: What about the “TNF-α secretion induced by S. abortus LPS” value (RAW 264.7 cells; control 5,726) of the same molecule?
A: 4,090 +/− 806 pg/ml

Q: And the “TNF-α secretion induced by N. min. LPS” value (RAW 264.7 cells; control 8,817)?
A: 8,181 +/− 1,032 pg/ml

Q: What about the IC50 (S. abortus LPS) of the same molecule?
A: 18.2 µM
